The values that follow are results of earlier work, collected in US20130040971A1, “6-CYCLOALKYL-PYRAZOLOPYRIMIDINONES FOR THE TREATMENT OF CNS DISORDERS” (Boehringer Ingelheim International GmbH, priority 2011, published 2013).

One series addresses human PDE9A (Homo sapiens, UniProt O76083). Conditions: concentrations of up to 100 micromolar (μM).
The target in a further series is T1, Murine PDE9A (Mus musculus, UniProt O70628).
T1 sequence (O70628 1-534): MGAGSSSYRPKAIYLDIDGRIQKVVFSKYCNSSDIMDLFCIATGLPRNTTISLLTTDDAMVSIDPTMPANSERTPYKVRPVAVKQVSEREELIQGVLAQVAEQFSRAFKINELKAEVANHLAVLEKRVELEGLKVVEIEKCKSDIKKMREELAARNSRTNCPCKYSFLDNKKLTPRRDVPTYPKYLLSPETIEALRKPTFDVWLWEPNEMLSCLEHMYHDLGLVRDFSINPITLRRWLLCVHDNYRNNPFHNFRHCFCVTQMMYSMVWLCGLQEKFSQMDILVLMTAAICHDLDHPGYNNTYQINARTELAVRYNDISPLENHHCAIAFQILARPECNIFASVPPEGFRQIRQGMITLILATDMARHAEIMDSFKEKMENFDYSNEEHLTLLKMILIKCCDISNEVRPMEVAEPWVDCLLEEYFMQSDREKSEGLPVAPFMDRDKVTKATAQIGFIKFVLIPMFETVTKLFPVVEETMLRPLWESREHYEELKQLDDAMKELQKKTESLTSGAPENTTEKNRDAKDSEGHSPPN
Conditions: concentrations below 200 micromolar.

human PDE9A, sequence (O76083 whole entry): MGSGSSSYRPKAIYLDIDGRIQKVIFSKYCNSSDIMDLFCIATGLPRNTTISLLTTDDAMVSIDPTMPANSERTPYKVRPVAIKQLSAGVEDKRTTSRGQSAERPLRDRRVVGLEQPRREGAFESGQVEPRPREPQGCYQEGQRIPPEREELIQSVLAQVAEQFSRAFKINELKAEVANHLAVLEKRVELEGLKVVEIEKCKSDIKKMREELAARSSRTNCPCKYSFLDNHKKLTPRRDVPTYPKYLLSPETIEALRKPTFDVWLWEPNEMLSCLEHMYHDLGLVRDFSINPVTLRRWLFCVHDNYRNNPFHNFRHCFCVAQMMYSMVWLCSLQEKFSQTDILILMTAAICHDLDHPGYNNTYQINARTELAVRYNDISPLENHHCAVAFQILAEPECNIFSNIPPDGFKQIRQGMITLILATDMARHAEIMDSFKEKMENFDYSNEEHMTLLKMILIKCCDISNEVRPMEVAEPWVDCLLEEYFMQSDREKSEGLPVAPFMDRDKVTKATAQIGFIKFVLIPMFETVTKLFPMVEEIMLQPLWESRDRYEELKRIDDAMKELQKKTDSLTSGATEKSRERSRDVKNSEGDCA

For the molecule `CC(C)Cn1c(=O)n(C)c(=O)c2[nH]cnc21` [IBMX], on human PDE9A, the “inhibition on the isolated enzyme (human PDE9A)” value (from here on “inhibition … (human PDE9A)”) was “no inhibition”. The “inhibition of murine PDE9A” value on Murine PDE9A was “not inhibited”.

`CC(=O)Nc1ccc(-c2c[nH]c(=O)cn2)cc1` [SKF94120]: the “inhibition … (human PDE9A)” value on human PDE9A is “no inhibition”.

`OCCN(CCO)c1nc(N2CCCCC2)c2nc(N(CCO)CCO)nc(N3CCCCC3)c2n1` [dipyridamole]: on human PDE9A, the “inhibition … (human PDE9A)” value was “no inhibition”.

With `COc1ccc(C2CNC(=O)C2)cc1OC1CCCC1` (stereo not drawn) [rolipram], at human PDE9A, the “inhibition … (human PDE9A)” value is listed as “no inhibition”.

Turning to `CCOC(=O)C1=C[C@]2(CC)CCCN3CCc4c(n1c1ccccc41)[C@@H]32` [vinpocetine], the “inhibition … (human PDE9A)” value at human PDE9A is given as “no inhibition”.
